One experiment has as its target T1, AhR (Homo sapiens, UniProt P35869).
T1 construct: endogenous in cells; host or cells: U937 cells
T1 sequence (P35869 11-848): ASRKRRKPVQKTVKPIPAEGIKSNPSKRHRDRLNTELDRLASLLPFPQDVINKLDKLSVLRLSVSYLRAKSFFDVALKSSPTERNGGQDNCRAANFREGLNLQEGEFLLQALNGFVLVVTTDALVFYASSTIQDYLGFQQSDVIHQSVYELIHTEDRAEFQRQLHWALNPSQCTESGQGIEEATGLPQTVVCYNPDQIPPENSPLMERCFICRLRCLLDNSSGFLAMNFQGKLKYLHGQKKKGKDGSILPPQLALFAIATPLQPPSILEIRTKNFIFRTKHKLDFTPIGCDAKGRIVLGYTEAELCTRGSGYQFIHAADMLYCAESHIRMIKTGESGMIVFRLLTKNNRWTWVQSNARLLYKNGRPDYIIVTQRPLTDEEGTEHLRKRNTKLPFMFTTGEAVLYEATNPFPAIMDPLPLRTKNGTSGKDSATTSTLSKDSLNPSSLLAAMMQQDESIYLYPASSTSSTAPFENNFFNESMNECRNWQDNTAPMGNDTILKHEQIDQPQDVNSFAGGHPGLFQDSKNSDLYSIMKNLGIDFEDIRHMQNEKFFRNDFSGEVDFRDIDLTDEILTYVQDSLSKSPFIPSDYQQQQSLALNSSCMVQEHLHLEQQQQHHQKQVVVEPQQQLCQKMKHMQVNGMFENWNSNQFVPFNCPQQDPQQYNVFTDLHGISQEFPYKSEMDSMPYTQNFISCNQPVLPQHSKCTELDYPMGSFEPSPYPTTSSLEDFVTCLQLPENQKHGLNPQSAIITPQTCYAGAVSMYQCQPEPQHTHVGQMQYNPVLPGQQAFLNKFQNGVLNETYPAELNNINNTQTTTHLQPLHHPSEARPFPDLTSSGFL
The experiment is described as follows: AhR antagonism in U937 cells (Promega P450-Glo assay). The format is cell-based. The note with it: inhibition of 300 μM KYNA response, 24 hrs, CYP1A1 activity readout (Luciferin-CEE), arithmetic mean of pIC50. As for the experimental part: (§1) The compounds of the examples were tested in selected biological assays two or more times. Data are reported as the arithmetic mean of the pIC50 (−log10IC50) values, where IC50 is defined as the concentration of compound producing a 50% inhibition of the agonist (KYNA) response.
In Vitro Assay 1: AhR Antagonism in U937 Cells (Promega P450-Glo™ Assay)
AhR antagonism was assessed in U937 cells (myeloid lineage cell line derived from a human histiocytic lymphoma). Ligand binds the AhR in the cytoplasm, and the AhR-ligand complex translocates to the nucleus and forms a heterodimer with AhR nuclear translocator (Arnt). This complex binds the xenobiotic response element (XRE) in the 5′ upstream region of the CYP1A1 promoter, enhancing CYP1A1 expression. CYP1A1 activity is subsequently determined by assessing the conversion of Luciferin-CEE to luciferin, which in turn reacts with luciferase to produce light. The amount of light produced is directly proportional to cytochrome P450 activity. U937 cells in Ultraculture serum free media (Lonza) were plated at 100,000 cells per well in a round bottom 96 well tissue culture plate. Seven concentrations of test compound (final [DMSO]1%) were added and incubated for 10 minutes before the addition of 300 μM KYNA. The plates were then placed in an incubator at 37° C., >85% humidity, 5% CO2 for 24 hrs. After aspiration of the supernatant the CYP1A1 substrate Luciferin-CEE ([Final] 83 μM) was added and incubated for 3 hrs before the reaction was stopped by adding luciferin detection reagent and luminescence was read after 20 minutes.

Another experiment deals with T2, CYP1A1 (Homo sapiens, UniProt P04798).
T2 construct: purchased Cypex
T2 sequence (P04798 1-512): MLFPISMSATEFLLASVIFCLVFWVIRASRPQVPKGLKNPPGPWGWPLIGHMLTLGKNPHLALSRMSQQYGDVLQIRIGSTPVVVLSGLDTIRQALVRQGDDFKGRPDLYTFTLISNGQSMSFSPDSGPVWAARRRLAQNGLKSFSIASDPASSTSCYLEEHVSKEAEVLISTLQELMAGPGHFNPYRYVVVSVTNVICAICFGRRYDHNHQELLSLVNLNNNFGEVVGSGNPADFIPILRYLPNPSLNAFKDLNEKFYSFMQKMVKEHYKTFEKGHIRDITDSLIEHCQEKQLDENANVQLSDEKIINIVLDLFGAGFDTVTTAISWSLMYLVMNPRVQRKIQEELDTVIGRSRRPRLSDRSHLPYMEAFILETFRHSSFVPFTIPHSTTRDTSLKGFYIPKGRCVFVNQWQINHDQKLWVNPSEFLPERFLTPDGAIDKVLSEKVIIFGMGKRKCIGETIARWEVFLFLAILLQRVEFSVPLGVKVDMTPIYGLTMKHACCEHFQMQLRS
The experiment is described as follows: CYP1A1 inhibition assay (Promega P450-Glo, Cypex CYP1A1 bactosomes). Type of experiment: biochemical. The note with it: Luciferin-CEE 30 μM, 0.2 mM NADPH, 37° C. 10 minutes, arithmetic mean of pIC50. As for the experimental part:
as §1
In vitro assay 2: CYP1A1 inhibition assay The direct CYP1A1 inhibitory activity of test compounds was also assessed using the Promega P450-Glo™ assay system. Seven concentrations of test compound were added to a ½ area white 96 well plate. Cypex CYP1A1 bactosomes ([final] 0.5 pmol) and CYP1A1 substrate Luciferin-CEE ([final] 30 μM) were prepared in 0.1M potassium phosphate buffer and incubated with test compounds at 37° C. for 5 minutes. 0.2 mM NADPH was then added to the plates and incubated at 37° C., for 10 minutes. The reaction was stopped by adding luciferin detection reagent and luminescence was read after 20 minutes.

As a reminder, the IC50 is the midpoint of a concentration-inhibition curve. The low end stands for greater potency, the high end for weaker potency.

Take `CCn1c(-c2ccc(NC(=O)c3ccnn3C)cc2)nc2ccccc21` [Example 1, N-(4-(1-ethyl-1H-benzo[d]imidazol-2-yl)phenyl)-1-methyl-1H-pyrazole-5-carboxamide]: the 50% inhibitory concentration (IC50) is 63.1 nM on AhR and 251 nM against CYP1A1. In the case of `COCCn1nccc1C(=O)Nc1ccc(-c2nc3ccccc3o2)cc1` [Example 2, N-(4-(benzo[d]oxazol-2-yl)phenyl)-1-(2-methoxyethyl)-1H-pyrazole-5-carboxamide], the IC50 against AhR was 100 nM; against CYP1A1, 794 nM.

At CYP1A1, `COC(=O)c1cccc2nc(-c3ccc(NC(=O)c4ccnn4C)cc3)oc12` [Example 3, methyl 2-(4-(1-methyl-1H-pyrazole-5-carboxamido)phenyl) benzo[d]oxazole-7-carboxylate] showed an IC50 of 1260 nM.

As to `CNC(=O)c1cccc2nc(-c3ccc(NC(=O)c4ccnn4C)cc3)oc12` [Example 4, N-methyl-2-(4-(1-methyl-1H-pyrazole-5-carboxamido)phenyl) benzo[d]oxazole-7-carboxamide], the IC50 was 79.4 nM on AhR and 1000 nM on CYP1A1.

For the compound `Cc1nc(-c2ccc(NC(=O)c3ccnn3C)cc2)oc1C` [Example 5, N-(4-(4,5-dimethyloxazol-2-yl)phenyl)-1-methyl-1H-pyrazole-5-carboxamide], the IC50 against AhR is 15.8 nM; at CYP1A1 it was 1000 nM.

With `Cc1cccc2nc(-c3ccc(NC(=O)c4ccnn4C)cc3)oc12` [Example 6, 1-methyl-N-(4-(7-methylbenzo[d]oxazol-2-yl)phenyl)-1H-pyrazole-5-carboxamide], the figures for the IC50 on AhR and against CYP1A1 were 39.8 nM and 631 nM, respectively.

For `Cc1cc(NC(=O)c2ccon2)ccc1-c1nc2ccccc2o1` [Example 7, N-(4-(benzo[d]oxazol-2-yl)-3-methylphenyl)isoxazole-3-carboxamide], the IC50 against AhR was 79.4 nM; at CYP1A1 it was 631 nM. The matching figures for `Cc1cc(NC(=O)c2ccon2)ccc1-c1nc2cccc(C)c2o1` [Example 8, N-(3-methyl-4-(7-methylbenzo[d]oxazol-2-yl)phenyl) isoxazole-3-carboxamide]: 79.4 nM and 282 nM.

For the compound `Cc1cc(NC(=O)c2ccnn2C)ccc1-c1nc2cccc(C)c2o1` [Example 9, 1-methyl-N-(3-methyl-4-(7-methylbenzo[d]oxazol-2-yl)phenyl)-1H-pyrazole-5-carboxamide], the IC50 at AhR is 7.94 nM; on CYP1A1, 158 nM.

For the compound `Cn1nccc1C(=O)Nc1ccc(-c2nc3ccccc3o2)cc1` [Example 10, N-(4-(benzo[d]oxazol-2-yl)phenyl)-1-methyl-1H-pyrazole-5-carboxamide], the figures for the IC50 against AhR and against CYP1A1 were 25.1 nM and 200 nM, respectively.

With `Cn1nccc1C(=O)Nc1ccc(-c2nc3cccc(Cl)c3o2)cc1` [Example 11, N-(4-(7-chlorobenzo[d]oxazol-2-yl)phenyl)-1-methyl-1H-pyrazole-5-carboxamide], the figures for the IC50 on AhR and against CYP1A1 were 12.6 nM and 794 nM, respectively.

Consider `Cn1nccc1C(=O)Nc1ccc(-c2nc3cccc(C(=O)NCCc4c[nH]c5ccccc45)c3o2)cc1` [Example 12, N-(2-(1H-indol-3-yl)ethyl)-2-(4-(1-methyl-1H-pyrazole-5-carboxamido)phenyl)benzo[d]oxazole-7-carboxamide], for which the IC50 on AhR was 50.1 nM; against CYP1A1 it was 251 nM. In the same order, the values of `Cn1nccc1C(=O)Nc1ccc(-c2nc3cccc(CO)c3o2)cc1` [Example 13, N-(4-(7-(hydroxymethyl)benzo[d]oxazol-2-yl)phenyl)-1-methyl-1H-pyrazole-5-carboxamide] are 100 nM and 794 nM. In the same order, the values of `Cn1nccc1C(=O)Nc1ccc(-c2nc3cccc(C(N)=O)c3o2)cc1` [Example 14, 2-(4-(1-methyl-1H-pyrazole-5-carboxamido)phenyl) benzo [d]oxazole-7-carboxamide] are 200 nM and 2510 nM. In the same order, the values of `CCNC(=O)c1cccc2nc(-c3ccc(NC(=O)c4ccnn4C)cc3)oc12` [Example 15, N-Ethyl-2-(4-(1-methyl-1H-pyrazole-5-carboxamido)phenyl) benzo[d]oxazole-7-carboxamide] are 398 nM and 1000 nM. With `Cn1nccc1C(=O)Nc1ccc(-c2nc3cccc(C#N)c3o2)cc1` [Example 16, N-(4-(7-Cyanobenzo[d]oxazol-2-yl)phenyl)-1-methyl-1H-pyrazole-5-carboxamide], the results for the IC50 against AhR and at CYP1A1 were 15.8 nM and 2510 nM, respectively. In the same order, the values of `Cc1cccc2oc(-c3ccc(NC(=O)c4ccnn4C)cc3)nc12` [Example 17, 1-methyl-N-(4-(4-methylbenzo[d]oxazol-2-yl)phenyl)-1H-pyrazole-5-carboxamide] are 31.6 nM and 1000 nM. In the same order, the values of `Cn1nccc1C(=O)Nc1ccc(-c2nc3cccc(C(C)(C)O)c3o2)cc1` [Example 18, N-(4-(7-(2-hydroxypropan-2-yl)benzo[d]oxazol-2-yl)phenyl)-1-methyl-1H-pyrazole-5-carboxamide] are 363 nM and 251 nM. The matching figures for `Cn1nccc1C(=O)Nc1ccc(-c2nc3cccc(Cl)c3[nH]2)cc1` [Example 19, N-(4-(7-chloro-1H-benzo[d]imidazol-2-yl)phenyl)-1-methyl-1H-pyrazole-5-carboxamide]: 145 nM and 316 nM.

Take `Cn1nccc1C(=O)Nc1ccc(-c2nc3ccccc3[nH]2)cc1` [Example 20, N-(4-(1H-benzo[d]imidazol-2-yl)phenyl)-1-methyl-1H-pyrazole-5-carboxamide]: the IC50 against AhR was 158 nM; at CYP1A1, 224 nM. In the same order, the values of `Cn1nccc1C(=O)Nc1ccc(-c2nc3ccccc3s2)cc1` [Example 21, N-(4-(benzo[d]thiazol-2-yl)phenyl)-1-methyl-1H-pyrazole-5-carboxamide] are 50.1 nM and 316 nM. In the same order, the values of `Cc1cc(NC(=O)c2ccnn2C)ccc1-c1nc2ccccc2o1` [Example 22, N-(4-(benzo[d]oxazol-2-yl)-3-methylphenyl)-1-methyl-1H-pyrazole-5-carboxamide] are 7.94 nM and 200 nM. In the same order, the values of `Cc1cc(NC(=O)c2ccnn2C)ccc1-c1nc2c(C)cccc2o1` [Example 23, 1-methyl-N-(3-methyl-4-(4-methylbenzo[d]oxazol-2-yl)phenyl)-1H-pyrazole-5-carboxamide] are 17.4 nM and 1260 nM.

These data come from US20210395242A1, “HETEROCYCLIC COMPOUNDS AS AHR MODULATORS” (JAGUAHR THERAPEUTICS PTE LTD, priority 2018, published 2021).
